Assay results published in patent US20220193095A9, “PHARMACEUTICAL COMPOSITIONS” (Shenzhen Pharmacin Co., Ltd., priority 2019, published 2022).

Key:
[1] = cited from earlier work
[2] = cited from earlier work; remark: listed apart in the source
[3] = Solubility of abiraterone acetate in other media
[4] = Solubility of abiraterone acetate in surfactants
[5] = Solubility of abiraterone acetate in aqueous media
[6] = Solubility of abiraterone acetate in fatty acids; conditions: 25° C.
[7] = Solubility of abiraterone acetate in co-solvents
[8] = Solubility of abiraterone acetate in lipids (glycerides); conditions: 25° C.

Structure (SMILES): CC(=O)O[C@H]1CC[C@@]2(C)C(=CC[C@@H]3[C@@H]2CC[C@]2(C)C(c4cccnc4)=CC[C@@H]32)C1 [Abiraterone acetate]
- solubility in water [1]: practically insoluble in water
- Log P [2]: 5.12
- Solubility ([3]; 1-octanol, 25° C.): 114.0 mg/mL
- Solubility ([3]; Azone (Laurocapram), 25° C.): 66.0 mg/mL
- Solubility ([3]; Capryl monoglyceride, 25° C. (Table 11)): 139.8 mg/mL
- Solubility ([3]; Glycerol mono/di-caprylocaprate, 25° C. (Table 11)): 147.0 mg/mL
- Solubility ([3]; Glyceryl monooleate, 25° C. (Table 11)): 37.1 mg/mL
- Solubility ([3]; Isopropyl myristate, 25° C. (Table 11)): 41.0 mg/mL
- Solubility ([3]; Polyglycerol fatty acid ester, 25° C. (Table 11)): 10.0 mg/mL
- Solubility ([3]; Propylene Glycol Monocaprylate, 25° C. (Table 11)): 160.0 mg/mL
- Solubility ([4]; Labrasol, 25° C.): 35.4 mg/mL
- Solubility ([4]; Polyethylene Glycol Oleate, 25° C.): 52.7 mg/mL
- Solubility ([4]; Polyoxyethylene 8 stearate, 25° C.): 18.1 mg/mL
- Solubility ([4]; Polyoxyethylene hydrogenated castor oil, 25° C.): 10.1 mg/mL
- Solubility ([4]; Tween 80, 25° C.): 7.5 mg/mL
- Solubility ([5]; FDA Dissolution medium: 0.25% SLS in 56.5 mM phosphate buffer, pH 4.5, 25° C.): 0.7 mg/mL
- Solubility ([5]; pH 3.0 buffer, 25° C.): <0.001 mg/mL
- Solubility ([5]; pH 4.0 buffer, 25° C.): <0.001 mg/mL
- Solubility ([5]; pH 5.0 buffer, 25° C.): <0.001 mg/mL
- Solubility ([5]; pH 6.0 buffer, 25° C.): <0.001 mg/mL
- Solubility ([5]; pH 7.4 buffer, 25° C.): <0.001 mg/mL
- Solubility ([6]; Acetic acid): 2386.1 mg/mL
- Solubility ([6]; Butyric acid): 1399.3 mg/mL
- Solubility ([6]; Heptanoic acid): 1325.9 mg/mL
- Solubility ([6]; Linoleic acid): 182.9 mg/mL
- Solubility ([6]; Nonanoic acid): 1084.1 mg/mL
- Solubility ([6]; Oleic acid): 239.0 mg/mL
- Solubility ([6]; Propionic acid): 2209.5 mg/mL
- Solubility ([6]; Valeric acid): 1104.8 mg/mL
- Solubility ([6]; n-caproic acid): 1572.6 mg/mL
- Solubility ([6]; n-caprylic acid): 1214.7 mg/mL
- Solubility ([7]; Ethanol, 25° C.): 61.1 mg/mL
- Solubility ([7]; Glycerol, 25° C.): 5.0 mg/mL
- Solubility ([7]; PEG400, 25° C.): 16.5 mg/mL
- Solubility ([7]; Propylene glycol, 25° C.): 5.0 mg/mL
- Solubility ([7]; Transcutol, 25° C.): 99.5 mg/mL
- Solubility ([8]; Capryl monoglyceride): 139.8 mg/mL
- Solubility ([8]; Castor oil): 59.6 mg/mL
- Solubility ([8]; Coconut oil): 30.6 mg/mL
- Solubility ([8]; Corn oil): 31.4 mg/mL
- Solubility ([8]; Glycerol mono/di-caprylocaprate): 147.0 mg/mL
- Solubility ([8]; Glyceryl monooleate): 37.1 mg/mL
- Solubility ([8]; Isopropyl myristate): 41.0 mg/mL
- Solubility ([8]; Olive oil): 27.3 mg/mL
- Solubility ([8]; Polyglycerol fatty acid ester): 10.0 mg/mL
- Solubility ([8]; Propylene Glycol Monocaprylate): 160.0 mg/mL
- Solubility ([8]; Soybean oil): 28.1 mg/mL
